Experiments:
human cardiomyocytes = experiment: DOX-induced cell death and mitochondrial damage in human cardiomyocytes (HCM); conditions: 10 μM DOX
[1] = test system: DOX-induced cardiotoxicity; experiment: DOX treatment in vivo (cardiotoxicity, 42 days)
myocardial I/R injury = experiment: in vivo murine myocardial I/R: infarct size, troponin, apoptosis, cardiac function; design: species or system mouse; conditions: wild-type mice
BNIP3/BAX = experiment: in vivo murine myocardial I/R: necrotic and apoptotic signaling in the area at risk; design: species or system mouse; conditions: AAR
recombinant BNIP3 = recombinant BNIP3 (Mus musculus, UniProt O55003); experiment: BNIP3/peptide microarray (truncation and substitution analysis); format: binding; conditions: FIG. 3H
[2] = target: T1, Recombinant Mouse BCL2/adenovirus E1B 19 kDa protein interacting protein 3 (Bnip3) (mouse, UniProt O55003 1-187, labelled with DyLight 650 (Dy650) where used as the soluble probe); experiment: N-terminal sequence truncation analysis, peptide microarray with rBNIP3
T1 construct: Bought recombinant protein; also called rBNIP3; recombinant BNIP3

[3] = target: T1, Recombinant Mouse BCL2/adenovirus E1B …; experiment: BNIP3/peptide microarray, labelled rBNIP3 on immobilised truncation peptides

T1 sequence (O55003 whole entry, the tested form may be a part): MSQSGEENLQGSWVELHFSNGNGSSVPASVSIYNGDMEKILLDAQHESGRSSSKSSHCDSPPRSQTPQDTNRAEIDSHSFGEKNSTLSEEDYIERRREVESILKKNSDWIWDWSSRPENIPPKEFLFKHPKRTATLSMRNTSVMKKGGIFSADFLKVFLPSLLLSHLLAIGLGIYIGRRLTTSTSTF
Chain of recombinant BNIP3 (O55003 whole entry, the tested form may be a part): as above

What does the source list for COc1cccc2c1C(=O)c1c(O)c3c(c(O)c1C2=O)C[C@@](O)(C(=O)CO)C[C@@H]3O[C@H]1C[C@H](N)[C@H](O)[C@H](C)O1 [DOX, Doxorubicin]?
mPTP opening (human cardiomyocytes): activated; mitochondrial ROS generation (human cardiomyocytes; four and 22 hours): triggered; mitochondrial membrane potential (human cardiomyocytes; four and 22 hours): disrupted; mitochondrial calcium ion overload (human cardiomyocytes; four hours): induced; heart rate ([1]; DOX alone or in combination with PepB): unaffected; CQ mediated LC3II/I increase (autophagic flux) ([1]; additional chloroquine treatment): abolished; basal respiration ([1]; cardiac mitochondria, Seahorse): affected; maximal respiration ([1]; cardiac mitochondria, Seahorse): affected; respiratory reserve capacity (OCR) ([1]; cardiac mitochondria, Seahorse): inhibited; BNIP3 accumulation ([1]; mouse, in vivo): triggered; cardiomyocyte death (cardiac troponin I levels) ([1]; mouse, in vivo): dramatic positive effect; p62 accumulation ([1]; mouse, in vivo): triggered

“GRKKRRQRRRPQLDAQHESGRSSSKSSHCDSP [TAT-BNIP3-20C, control peptide, HIV-1 PTD attached to BNIP3 amino acids 42-61]” was tested. Which “infarct size compared with vehicle treatment” value (myocardial I/R injury; 5 minutes before reperfusion, 24 h reperfusion) did it give?
The value was “no difference was observed”.

What does the source list for “GRKKRRQRRRPQMSQSGEENLQGSWVELHFSN [TAT-BNIP3-20A, HIV-1 PTD attached to 20 amino acids derived from BNIP3 1-20]”?
reduction in infarct size relative to vehicle (myocardial I/R injury; peptide 5 minutes before reperfusion, 30 min ischemia/24 h reperfusion): 41%; caspase-3 activity (BNIP3/BAX): markedly reduced; BNIP3 translocation to the mitochondria (BNIP3/BAX; wild-type mice, 10 minutes reperfusion): prevented

Which “luminescence in N-terminal truncation analysis” value (recombinant BNIP3) does the source give for VELHFSN here?
Its value is “substantially higher luminescence”.

B1: VELHFSN (peptide)
peptide: VELHFSN
notes: N-terminal truncation of BNIP3 1-20 on the peptide microarray
Does B1 bind [2]?
Result: binds

B2: WVELHFSN (BNIP3 amino acid residues 13-20) (peptide)
peptide: WVELHFSN
notes: Immobilised on peptide microarrays (JPT); also called truncated peptide
How did the “fold signal increase compared to the 20 residues of BNIP3-20A peptide” value [3] turn out when B2 was run?
The value was 14 fold.
